Results reported in PubChem BioAssay AID1549 (Sanford-Burnham Center for Chemical Genomics, 2009).
Calls of active or inactive are those of the source. The rule behind the calls is not given here.

Biological target: Influenza A virus M2 proton channel (A/TW/4845/1999 H1N1)
Test: NMR binding screen, influenza A virus M2 proton channel, Kd (AID 1549)
Conditions: M2 protein

Structure (SMILES)	Kd
Cc1occc1C(=O)Nc1ccc(C(N)=O)cc1	> 4 mM (inactive)
O=[n+]1cc(C2=CC=CCC2)n([O-])c2c1CCCCC2	> 4 mM (inactive)
Nc1c(Nc2ccccc2)c2ccccc2oc1=O	> 4 mM (inactive)
COc1cc2c(cc1OC)[C@@H]1C(=O)c3ccc4c(c3O[C@@H]1CO2)C=CC(C)(C)O4	> 4 mM (inactive)
O=C(NC1CC1)c1ccccc1[N+](=O)[O-]	> 4 mM (inactive)
OCC1CCN(Cc2ccccc2)CC1	> 4 mM (inactive)
CNC(=O)c1ccc([N+](=O)[O-])cc1Cl	> 4 mM (inactive)
COc1ccc(C2CC(=O)NN2)cc1OC1CCCC1 (configuration not stated)	> 4 mM (inactive)
NCCc1c[nH]c2ccccc12	> 4 mM (inactive)
CC1(C)Cc2cccc(C(=O)O)c2O1	> 4 mM (inactive)
CC1(C)C2CC[C@]3(C)C(C(=O)C=C4[C@H]5C[C@@](C)(C(=O)O)CC[C@]5(C)CC[C@]43C)[C@@]2(C)CC[C@@H]1O (some centres not stated)	> 4 mM (inactive)
COc1ccc(C(C)=O)c(O)c1	> 4 mM (inactive)
O=C(Nc1ccc2c(c1)OCCO2)c1ccncc1	> 4 mM (inactive)
CN(C)c1nc(N2CCOCC2)c2cnn(C)c2n1	> 4 mM (inactive)
COC(=O)c1ccccc1N(C)S(C)(=O)=O	> 4 mM (inactive)
COc1ccc(Cl)c(S(=O)(=O)N2CCCC2)c1	> 4 mM (inactive)
S=c1[nH]c2cccnc2[nH]1	> 4 mM (inactive)
Cc1cc(Oc2ccccc2)nc(N)n1	> 4 mM (inactive)
O=C(O)CCC(=O)Nc1ccccn1	> 4 mM (inactive)
O=C1COc2ccc(C(=O)c3ccccc3)cc2CN1	> 4 mM (inactive)
O=C(Nc1c[nH]c(=O)[nH]c1=O)c1cccs1	> 4 mM (inactive)
O=C(O)CN1CCN(C2CCCC2)CC1	> 4 mM (inactive)
COc1cccc(/C=C/C(=O)O)c1C(C)C	> 4 mM (inactive)
CC(C)NC(=O)c1cc(=O)n(C)c(=O)n1C	> 4 mM (inactive)
OCCNC(=S)Nc1ccc(F)cc1	> 4 mM (inactive)

Structure (SMILES)	Kd
COc1ccccc1C(=O)Nc1ccccn1	> 4 mM (inactive)
COc1ccc(NC(=O)C(N)=O)cc1Cl	> 4 mM (inactive)
COc1ccccc1-c1n[nH]c(=O)o1	> 4 mM (inactive)
CC(=O)Nc1cccc(-c2nnc3n2CC(C)S3)c1 (configuration not stated)	> 4 mM (inactive)
CC(=O)CC(=O)N1C(O)CC[N+]1(C)C (configuration not stated)	> 4 mM (inactive)
Cc1ccc2nc(SCCC#N)nc(C)c2c1	> 4 mM (inactive)
COc1ccc(N2CC(=O)NC2=O)cc1	> 4 mM (inactive)
O=C(O)CCC1NCC2CC1CN1CCCCC21 (configuration not stated)	> 4 mM (inactive)
CCOC(=O)C1CCC(=O)c2cccn21 (configuration not stated)	> 4 mM (inactive)
Cc1ccc(C(=O)Nc2c[nH]c(=O)[nH]c2=O)cc1	> 4 mM (inactive)
CC(C)NC(=O)c1cc(-n2cnnc2)ccc1Cl	> 4 mM (inactive)
COC(=O)c1cn(C(=O)OC)c2ccccc12	> 4 mM (inactive)
C(=N\c1ncn[nH]1)/c1cccs1	> 4 mM (inactive)
CC(=O)Nc1nnc(-c2ccncc2)s1	> 4 mM (inactive)
COc1ccc(C(=O)NC2=NCCS2)cc1OC	> 4 mM (inactive)
NC(=S)N1CCC(c2ccccc2)=N1	> 4 mM (inactive)
COc1ccccc1C(=O)NC1CCN(C)CC1	> 4 mM (inactive)
c1ccc(-c2nnc(CNCc3ccco3)o2)cc1	> 4 mM (inactive)
O=C(Nc1ccccc1[N+](=O)[O-])c1ccc(=O)[nH]n1	> 4 mM (inactive)
COc1cc2c(c(OC)c1OC)-c1ccc(OC)c(=O)cc1[C@@H](NC(C)=O)CC2	> 4 mM (inactive)
O=C(O)C1CNc2ccccc2O1 (configuration not stated)	> 4 mM (inactive)
CCN1CCC(NC2CCCCNC2=O)CC1 (configuration not stated)	> 4 mM (inactive)
COc1cccc(=O)c2c(C)n(C)c(C)c12	> 4 mM (inactive)
NCc1cc2ccccc2s1	> 4 mM (inactive)
CC(=O)OC1CCC23C(=O)OC45CCC(C6=CC(=O)OC6)C4(C)CCC2C5CCC3(O)C1 (configuration not stated)	> 4 mM (inactive)

Structure (SMILES)	Kd
NC(=O)Cc1nc(-c2ccc(F)cc2)cs1	> 4 mM (inactive)
CC(=O)N(C)Cc1nc2ccccc2n1C	> 4 mM (inactive)
O=C(NC12CC3CC(CC(C3)C1)C2)c1cnccn1	> 4 mM (inactive)
Nc1cccc(-n2cccc2)c1	> 4 mM (inactive)
CC1(C)CC2(CCO1)NCCN1C(=O)CSC12 (configuration not stated)	> 4 mM (inactive)
CCOCC(=O)N1CCc2ccccc21	> 4 mM (inactive)
O=C(O)CNC(=O)c1ccc([N+](=O)[O-])cc1	> 4 mM (inactive)
CCc1ccccc1NC(=O)c1cnccn1	> 4 mM (inactive)
O=C1NC(=Nc2ccccc2Cl)SC1(CO)CO	> 4 mM (inactive)
Nc1ccc(NC(=O)c2ccco2)c(Cl)c1	> 4 mM (inactive)
CNC(=S)N1CCN=C1Nc1nc(C)cc(C)n1	> 4 mM (inactive)
COc1c2occc2c(OC)c2c(=O)cc(C)oc12	> 4 mM (inactive)
O=C(O)c1cc(F)cc2c1OCOC2	> 4 mM (inactive)
COC(=O)c1noc(C)c1C(C)=O	> 4 mM (inactive)
O=C(Nn1cnnc1)c1ccccc1Cl	> 4 mM (inactive)
NCc1ccc2c(c1)OCCCO2	> 4 mM (inactive)
O=C(O)c1cc2ccccc2cn1	> 4 mM (inactive)
O=C(CC1SC(=O)NC1=O)Nc1nccs1 (configuration not stated)	> 4 mM (inactive)
O=c1c(-c2cccs2)[n+]([O-])c2ccccc2n1O	> 4 mM (inactive)
CC1CC[C@]2(NC1)O[C@H]1CC3C4CC[C@H]5C[C@@H](O)CC[C@]5(C)C4CC[C@]3(C)[C@H]1[C@@H]2C (some centres not stated)	> 4 mM (inactive)
CC(C)(C)NC(=O)N1CCC(C(=O)O)CC1	> 4 mM (inactive)
NC(=O)c1ccccc1NC(=O)c1cccnc1	> 4 mM (inactive)
Nc1cc(F)ccc1-n1ccnc1	> 4 mM (inactive)
CC1=NN(c2ccc(N)cc2)C(=O)C1	> 4 mM (inactive)
Cc1cc(C(F)(F)F)nn1CC(N)=O	> 4 mM (inactive)

Structure (SMILES)	Kd
Cc1nc2c(n1O)CCc1c-2no[n+]1[O-]	> 4 mM (inactive)
CCNC(=S)N1CCC(C(N)=O)CC1	> 4 mM (inactive)
NC1=NC(=O)/C(=C\c2cccc(C(=O)O)c2)S1	> 4 mM (inactive)
C=CC(=O)N1CC2CC(C1)c1cccc(=O)n1C2 (configuration not stated)	> 4 mM (inactive)
CN(Cc1nc2ccccc2n1C)S(C)(=O)=O	> 4 mM (inactive)
O=C1C=C(O)c2ccccc2C1=O	> 4 mM (inactive)
COC(=O)[C@]1(C)CC[C@]2(C)CC[C@]3(C)C4=CCc5c(cc(O)c(O)c5C)[C@]4(C)CC[C@@]3(C)C2C1 (some centres not stated)	> 4 mM (inactive)
Cc1cc(OC(=O)c2c(C)cc(O)cc2O)cc(O)c1C(=O)O	> 4 mM (inactive)
O=C(O)CNC(=O)c1ccccc1Cl	> 4 mM (inactive)
Cc1nnc(SCC(=O)N2CCCCC2)s1	> 4 mM (inactive)
CC(=O)Nc1ccc(NC(=O)C2CC2)cc1	> 4 mM (inactive)
Cc1ncc(C(=O)O)c(-c2ccccc2)n1	> 4 mM (inactive)
Cn1c(SCC(N)=O)nc2ccccc2c1=O	> 4 mM (inactive)
OCC1COc2ccccc2C1 (configuration not stated)	> 4 mM (inactive)
O=C1CC(c2c[nH]c3ccccc23)C(=O)N1 (configuration not stated)	> 4 mM (inactive)
CCSc1nc(N)c(NC(=O)c2ccco2)c(=O)[nH]1	> 4 mM (inactive)
NC(=O)CN1CCCCCC1=O	> 4 mM (inactive)
CC(=O)NC(=S)Nc1ccccc1C(N)=O	> 4 mM (inactive)
O=C(O[C@@H]1Cc2c(O)cc(O)cc2O[C@@H]1c1ccc(O)c(O)c1)c1cc(O)c(O)c(O)c1	> 4 mM (inactive)
Cn1c(=O)c2c(n(C)c1=O)=NC1(CCCCC1)N=2	> 4 mM (inactive)
CC(=O)Cc1nsc(NC(=O)c2ccc(C)cc2)n1	> 4 mM (inactive)
O=c1cc(-c2cc(O)c(O)c(O)c2)oc2cc(O)cc(O)c12	> 4 mM (inactive)
COCc1cc(Cl)nc(-c2csc(C)n2)n1	> 4 mM (inactive)
CCCCCCCCCCCC[C@H](C(=O)O)[C@@H](C)C(=O)O	> 4 mM (inactive)
Cc1cc(=O)cc(C)n1-c1ccccc1N1CCOCC1	> 4 mM (inactive)

Structure (SMILES)	Kd
CNC(=O)C(=O)Nc1ccc(F)cc1	> 4 mM (inactive)
O=S1(=O)C=CC(Nc2ccccc2)C1 (configuration not stated)	> 4 mM (inactive)
O=C(Nc1ccon1)c1ccc2c(c1)OCO2	> 4 mM (inactive)
O=C(Nc1ccccc1)c1cccc(N2C(=O)CCC2=O)c1	> 4 mM (inactive)
CC1=C(C(N)=O)C(c2cccs2)C(C(N)=O)=C(C)N1	> 4 mM (inactive)
Cc1nn(C)c(C)c1C(=O)O	> 4 mM (inactive)
CC(C)[C@@H]1CC[C@@H](C)CC1=O	> 4 mM (inactive)
Cc1nnc(SCC(=O)Nc2ccccc2)[nH]c1=O	> 4 mM (inactive)
O=C(Nc1ccccc1C(F)(F)F)c1cnccn1	> 4 mM (inactive)
CCCNC(CC(=O)Nc1cccnc1)C(=O)O (configuration not stated)	> 4 mM (inactive)
O=C(OCc1c(F)cccc1Cl)c1cnccn1	> 4 mM (inactive)
O=C(NCc1ccncc1)c1cccc(F)c1	> 4 mM (inactive)
O=C(NCc1cccs1)c1nn2cccnc2c1Cl	> 4 mM (inactive)
COCC(=O)N1CCCc2ccccc21	> 4 mM (inactive)
COc1cc(OC)c2c(c1)O[C@H](c1ccc(OC)c(OC)c1)[C@@H](O)C2	> 4 mM (inactive)
O=C(Nc1ccon1)c1cccc(Cl)c1	> 4 mM (inactive)
Nc1nc2ccc(C(=O)O)cc2s1	> 4 mM (inactive)
COc1cc(C)c2c(c1C=O)Oc1c(c(C)c(O)c3c1C(O)OC3=O)OC2=O (configuration not stated)	> 4 mM (inactive)
COc1c(O)cc(O)cc1O	> 4 mM (inactive)
CC1CC2(NC(=O)NC2=O)C(C)CN1C (configuration not stated)	> 4 mM (inactive)
Cc1cccc(-n2c(N)cc(=O)[nH]c2=S)c1	> 4 mM (inactive)
CC(C)CCCC(C)C1CCC2C3=CC[C@H]4C[C@@H](O)CC[C@]4(C)C3CC[C@@]21C (some centres not stated)	> 4 mM (inactive)
